Experimental data reported in patent publication US20210000912A1, “Compositions And Methods For Prophylaxis Or Treatment Of Pain” (Interk Peptide Therapeutics Limited, priority 2017, published 2021).

Legend:
[1] = target: T1, PKG1α (h) (Homo sapiens, UniProt Q13976); assay: PKG1α kinase activity assay, cell free; assay type: biochemical
T1 construct: purchased Eurofins Pharma Discovery Services UK Ltd (contract assay service)
T1 sequence (Q13976 1-671): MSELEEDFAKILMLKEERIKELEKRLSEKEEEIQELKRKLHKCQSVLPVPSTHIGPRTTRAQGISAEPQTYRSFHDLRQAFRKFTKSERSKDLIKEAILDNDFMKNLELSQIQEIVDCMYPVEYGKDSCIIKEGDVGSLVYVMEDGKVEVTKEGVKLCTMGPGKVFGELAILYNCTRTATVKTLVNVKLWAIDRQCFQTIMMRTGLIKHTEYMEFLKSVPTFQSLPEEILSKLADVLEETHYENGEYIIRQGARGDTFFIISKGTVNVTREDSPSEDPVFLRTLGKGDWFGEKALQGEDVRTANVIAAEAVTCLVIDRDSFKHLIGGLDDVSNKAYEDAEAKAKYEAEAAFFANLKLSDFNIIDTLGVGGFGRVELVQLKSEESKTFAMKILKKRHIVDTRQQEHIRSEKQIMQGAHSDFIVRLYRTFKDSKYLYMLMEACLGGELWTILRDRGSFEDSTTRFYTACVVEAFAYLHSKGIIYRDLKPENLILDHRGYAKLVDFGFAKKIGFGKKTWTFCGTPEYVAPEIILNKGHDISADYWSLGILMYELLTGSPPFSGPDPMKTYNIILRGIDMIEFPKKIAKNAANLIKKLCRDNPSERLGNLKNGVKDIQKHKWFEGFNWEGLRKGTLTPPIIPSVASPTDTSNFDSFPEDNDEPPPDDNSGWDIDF
Protocol: The capacity of test peptides to inhibit the activity of the kinases PKG1α, PKG1β, and Src family kinases in a cell free assay was assessed. The test peptides were amidated at their C-terminal end (indicated by “—NH2”) unless otherwise noted. Kinase activity assays were conducted by Eurofins Pharma Discovery Services UK Ltd (Dundee Technology Park, Dundee, United Kingdom) and Reaction Biology Corp. (Malvern, Pa., USA).
All test peptides are prepared to 50× final assay concentration in 100% DMSO. This working stock of the test compound is added to assay wells as the first component in the reaction, followed by the remaining components of the respective assay protocols described below. There is no pre-incubation step between the test peptide and the kinase prior to initiation of the reaction. The kinases are diluted in buffer (20 mM MOPS, 1 mM EDTA, 0.01% Brij-35, 5% Glycerol, 0.1% β-mercaptoethanol, 1 mg/mL BSA) prior to addition to the reaction mix.
Positive control wells contain all components of the reaction, except the test peptide of interest. However, DMSO (at a final concentration of 2%) is included in positive control wells to control for solvent effects. Negative control wells contain all components of the reaction, with a reference inhibitor (staurosporine) replacing the test peptide. This abolishes kinase activity and establishes a base-line (0% kinase activity). Kinase assay protocols (Eurofins Pharma Discovery Services UK Ltd, Dundee Technology Park, Dundee, United Kingdom) are described below. Of the Src family kinases, only the assay protocol for c-Src is shown.
PKG1α (h) is incubated with 8 mM MOPS pH 7.0, 0.2 mM EDTA, 10 μM cGMP, 200 μM peptide RRRLSFAEPG, 10 mM magnesium acetate and [γ-^33P]-ATP (specific activity approx. 500 cpm/pmol, concentration as required). The reaction is initiated by the addition of the MgATP mix. After incubation for 40 minutes at room temperature, the reaction is stopped by the addition of 3% phosphoric acid solution. A 10 μL aliquot of the reaction is then spotted onto a P30 filtermat and washed three times for 5 mins in 75 mM phosphoric acid and once in methanol prior to drying and scintillation counting.

[2] = system: CFA-injected mice; assay: CFA inflammatory pain model, incapacitance testing
[3] = Resistance to simulated gastric fluid; assay type: in vitro ADME
Protocol: Test 14 Arg peptides consisting of 14 contiguous L- or D-arginine amino acids were tested for resistance to simulated gastric fluid (porcine pepsin in a HCl and NaCl solution) at a pH of 2.01 for a period of 24 hours. Negligible degradation of each peptide was observed by exposure to the simulated gastric fluid over the 24 hour test period.

Question: With `N=C(N)NCCC[C@H](NC(=O)[C@H](CCCNC(=N)N)NC(=O)[C@H](CCCNC(=N)N)NC(=O)[C@H](CCCNC(=N)N)NC(=O)[C@H](CCCNC(=N)N)NC(=O)[C@H](CCCNC(=N)N)NC(=O)[C@H](CCCNC(=N)N)NC(=O)[C@H](CCCNC(=N)N)NC(=O)[C@H](CCCNC(=N)N)NC(=O)[C@H](CCCNC(=N)N)NC(=O)[C@H](CCCNC(=N)N)NC(=O)[C@H](CCCNC(=N)N)NC(=O)[C@H](CCCNC(=N)N)NC(=O)[C@@H](N)CCCNC(=N)N)C(N)=O` [IK01400, RRRRRRRRRRRRRR-NH2] as the compound, how does the IC50 [1] read?
Answer: Its IC50 is 6.7 nM.

Question: What about the “PKG1α IC50” value ([1]; cell free, 10 μM cGMP, 40 minutes at room temperature) of the same compound?
Answer: Its value is “single digit nanomolar range”.

Question: And the “alleviation of inflammatory pain” value ([2]; mice, both doses of the peptide employed)?
Answer: The value was “alleviated pain”.

Question: What about the hyperactivity ([2]; mice, intra-peritoneal) of the same compound?
Answer: The hyperactivity was “no hyperactivity was observed”.

Question: And the “time at which peak effect was reached following administration” value ([2]; mice, intra-peritoneal)?
Answer: Its value is greater than 1 h.

Question: And the “effectiveness in incapacitance test, morphine versus IK01400 (8.6 mg/kg)” value ([2]; second hour after administration)?
Answer: The value was “more effective than morphine”.

Question: What about the remaining at 1 h ([3]; pig, simulated gastric fluid with porcine pepsin, simulated gastric fluid pH 2.01, 1 hr, read-out: % of intact peptide observed) of the same compound?
Answer: The remaining at 1 h was 99.5%.

Question: What about the remaining at 4 h ([3]; pig, simulated gastric fluid with porcine pepsin, simulated gastric fluid pH 2.01, 4 hrs, read-out: % of intact peptide observed) of the same compound?
Answer: Its remaining at 4 h is 98.5%.

Question: What about the remaining at 24 h ([3]; pig, simulated gastric fluid with porcine pepsin, simulated gastric fluid pH 2.01, 24 hrs, read-out: % of intact peptide observed) of the same compound?
Answer: Its remaining at 24 h is 98.2%.

Question: What about the “% of intact peptide observed” value ([3]; simulated gastric fluid pH 2.01, time 0) of the same compound?
Answer: The value was 98.51%.
